Test results from ChEMBL document CHEMBL2321809 (J Med Chem, 2013).
Activity calls are given as the source filed them. No cut-off for these calls is given here.

Test system: Escherichia coli
Experiment: Antimicrobial activity against Escherichia coli DH10B expressing Beta-lactamase SHV K234A mutant by CLSI agar dilution method in presence of ampicillin
Assay type: functional

Structure (SMILES) | MIC
CC1(C)[C@H](C(=O)O)N2C(=O)C[C@H]2S1(=O)=O [SULBACTAM] | < 0.06 µg/mL
C[C@]1(Cn2ccnn2)[C@H](C(=O)O)N2C(=O)C[C@H]2S1(=O)=O [TAZOBACTAM] | < 0.06 µg/mL

Test system: Escherichia coli
Experiment: Antimicrobial activity against Escherichia coli DH10B expressing Beta-lactamase SHV K234X mutant by CLSI agar dilution method in presence of ampicillin
Assay type: functional

Structure (SMILES) | MIC
CC1(C)[C@H](C(=O)O)N2C(=O)C[C@H]2S1(=O)=O [SULBACTAM] | < 0.06 µg/mL
C[C@]1(Cn2ccnn2)[C@H](C(=O)O)N2C(=O)C[C@H]2S1(=O)=O [TAZOBACTAM] | < 0.06 µg/mL

Test system: not listed separately
Experiment: Inhibition of Beta-lactamase SHV-1 K234R protein mutant in Escherichia coli DH10B by Henri-Michaelis-Menten steady state equation analysis

Structure (SMILES) | Ki
O=C(Cc1cccs1)N[C@@H](Cc1cccc(C(=O)O)c1)B(O)O | 12 nM
CCOc1ccc2ccccc2c1C(=O)N[C@@H](Cc1cccc(C(=O)O)c1)B(O)O | 48 nM
N[C@@H](C(=O)N[C@@H](Cc1cccc(C(=O)O)c1)B(O)O)c1ccccc1 | 2.4 nM
CCN1CCN(C(=O)N[C@@H](C(=O)N[C@@H](Cc2cccc(C(=O)O)c2)B(O)O)c2ccc(O)cc2)C(=O)C1=O | 13.5 nM

Test system: Escherichia coli
Experiment: Antimicrobial activity against Escherichia coli DH10B expressing Beta-lactamase SHV K234R mutant by CLSI agar dilution method in presence of ampicillin
Assay type: functional

Structure (SMILES) | MIC
CC1(C)[C@H](C(=O)O)N2C(=O)C[C@H]2S1(=O)=O [SULBACTAM] | 64 µg/mL
C[C@]1(Cn2ccnn2)[C@H](C(=O)O)N2C(=O)C[C@H]2S1(=O)=O [TAZOBACTAM] | 16 µg/mL

Test system: Escherichia coli
Experiment: Binding affinity to Beta-lactamase SHV-1 K234R protein mutant in Escherichia coli DH10B assessed as melting temperature at 50 uM by circular dichroism analysis

Structure (SMILES) | Tm
N[C@@H](C(=O)N[C@@H](Cc1cccc(C(=O)O)c1)B(O)O)c1ccccc1 | 54.8 °C
C[C@]1(Cn2ccnn2)[C@H](C(=O)O)N2C(=O)C[C@H]2S1(=O)=O [TAZOBACTAM] | 49 °C

Test system: Escherichia coli
Experiment: Binding affinity to Beta-lactamase SHV-1 K234R protein mutant in Escherichia coli DH10B assessed as change in secondary structure at 50 uM by circular dichroism analysis

Structure (SMILES) | inhibition
CC1(C)[C@H](C(=O)O)N2C(=O)C[C@H]2S1(=O)=O [SULBACTAM] | inactive
C[C@]1(Cn2ccnn2)[C@H](C(=O)O)N2C(=O)C[C@H]2S1(=O)=O [TAZOBACTAM] | inactive

Test system: Escherichia coli
Experiment: Antimicrobial activity against Escherichia coli DH10B by CLSI agar dilution method in presence of ampicillin
Assay type: functional

Structure (SMILES) | MIC
CC1(C)[C@H](C(=O)O)N2C(=O)C[C@H]2S1(=O)=O [SULBACTAM] | < 0.06 µg/mL
C[C@]1(Cn2ccnn2)[C@H](C(=O)O)N2C(=O)C[C@H]2S1(=O)=O [TAZOBACTAM] | < 0.06 µg/mL

Test system: Escherichia coli
Experiment: Binding affinity to wild type Beta-lactamase SHV-1 in Escherichia coli DH10B assessed as change in secondary structure at 50 uM by circular dichroism analysis

Structure (SMILES) | inhibition
CC1(C)[C@H](C(=O)O)N2C(=O)C[C@H]2S1(=O)=O [SULBACTAM] | Active
C[C@]1(Cn2ccnn2)[C@H](C(=O)O)N2C(=O)C[C@H]2S1(=O)=O [TAZOBACTAM] | Active

Test system: Escherichia coli
Experiment: Binding affinity to wild type Beta-lactamase SHV-1 in Escherichia coli DH10B assessed as melting temperature at 50 uM by circular dichroism analysis

Structure (SMILES) | Tm
N[C@@H](C(=O)N[C@@H](Cc1cccc(C(=O)O)c1)B(O)O)c1ccccc1 | 61.4 °C
CC1(C)[C@H](C(=O)O)N2C(=O)C[C@H]2S1(=O)=O [SULBACTAM] | 54.4 °C
C[C@]1(Cn2ccnn2)[C@H](C(=O)O)N2C(=O)C[C@H]2S1(=O)=O [TAZOBACTAM] | 54.4 °C

Test system: Escherichia coli
Experiment: Antimicrobial activity against Escherichia coli DH10B expressing wild type Beta-lactamase SHV1 gene by CLSI agar dilution method in presence of ampicillin
Assay type: functional

Structure (SMILES) | MIC
CC1(C)[C@H](C(=O)O)N2C(=O)C[C@H]2S1(=O)=O [SULBACTAM] | 512 µg/mL
C[C@]1(Cn2ccnn2)[C@H](C(=O)O)N2C(=O)C[C@H]2S1(=O)=O [TAZOBACTAM] | 128 µg/mL

Test system: not listed separately
Experiment: Inhibition of wild type Beta-lactamase SHV-1 in Escherichia coli DH10B by Henri-Michaelis-Menten steady state equation analysis

Structure (SMILES) | Ki
O=C(Cc1cccs1)N[C@@H](Cc1cccc(C(=O)O)c1)B(O)O | 460 nM
CCOc1ccc2ccccc2c1C(=O)N[C@@H](Cc1cccc(C(=O)O)c1)B(O)O | 37 nM
N[C@@H](C(=O)N[C@@H](Cc1cccc(C(=O)O)c1)B(O)O)c1ccccc1 | 56 nM
CCN1CCN(C(=O)N[C@@H](C(=O)N[C@@H](Cc2cccc(C(=O)O)c2)B(O)O)c2ccc(O)cc2)C(=O)C1=O | 9.3 nM

Test system: Escherichia coli
Experiment: Selectivity ratio of Ki for Beta-lactamase SHV-1 in Escherichia coli DH10B to Ki for Beta-lactamase SHV-1 K234R protein mutant in Escherichia coli DH10B

Structure (SMILES) | Ratio Ki
N[C@@H](C(=O)N[C@@H](Cc1cccc(C(=O)O)c1)B(O)O)c1ccccc1 | 20
